Data on two compounds can be found in ChEMBL document CHEMBL5523759, “Discovery of Novel HDAC3 Inhibitors with PD-L1 Downregulating/Degrading and Antitumor Immune Effects” (J Med Chem, 2024).

Usually IC50 stands for the concentration at which inhibition is half-maximal. By thermodynamic solubility is commonly meant the concentration in solution at equilibrium with solid.

Data set [1] has as its system B16-F10. The experiment in a line: Induction of apoptosis in mouse B16-F10 cells at 8 uM measured for 48 hrs by Annexin-V/FITC staining based flow cytometry analysis relative to control. Format: functional. In general terms: A flow cytometer gives signals particle by particle.
In the next data set the test system is HCT-116. The data set can be described thus: cells. The note with it: Homo sapiens, HCT-116, 48 h.
A short description of data set [2]: Aqueous solubility of compound measured for 24 hrs by shake flask based HPLC analysis. It counts as physicochemical. As to conditions: buffer.
A further data set relates to Raji. The data set can be described thus: Antiproliferative activity against human Raji cells assessed as reduction in cell viability measured for 48 hrs by MTT assay. It counts as functional, cell-based. (In general: Tetrazolium dyes change colour on reduction, which living cells bring about.)
Data set [3] has as its system B16-F10. The experiment in a line: Induction of cell cycle arrest in mouse B16-F10 cells assessed as accumulation of cells at G0/G1 phase measured for 48 hrs by flow cytometry analysis. The note with it: dose 0.5-4 µM. Format: functional, cell-based.
The target in a further data set is T1, Histone deacetylase 7 (Homo sapiens, UniProt Q8WUI4).
T1 sequence (Q8WUI4 whole entry): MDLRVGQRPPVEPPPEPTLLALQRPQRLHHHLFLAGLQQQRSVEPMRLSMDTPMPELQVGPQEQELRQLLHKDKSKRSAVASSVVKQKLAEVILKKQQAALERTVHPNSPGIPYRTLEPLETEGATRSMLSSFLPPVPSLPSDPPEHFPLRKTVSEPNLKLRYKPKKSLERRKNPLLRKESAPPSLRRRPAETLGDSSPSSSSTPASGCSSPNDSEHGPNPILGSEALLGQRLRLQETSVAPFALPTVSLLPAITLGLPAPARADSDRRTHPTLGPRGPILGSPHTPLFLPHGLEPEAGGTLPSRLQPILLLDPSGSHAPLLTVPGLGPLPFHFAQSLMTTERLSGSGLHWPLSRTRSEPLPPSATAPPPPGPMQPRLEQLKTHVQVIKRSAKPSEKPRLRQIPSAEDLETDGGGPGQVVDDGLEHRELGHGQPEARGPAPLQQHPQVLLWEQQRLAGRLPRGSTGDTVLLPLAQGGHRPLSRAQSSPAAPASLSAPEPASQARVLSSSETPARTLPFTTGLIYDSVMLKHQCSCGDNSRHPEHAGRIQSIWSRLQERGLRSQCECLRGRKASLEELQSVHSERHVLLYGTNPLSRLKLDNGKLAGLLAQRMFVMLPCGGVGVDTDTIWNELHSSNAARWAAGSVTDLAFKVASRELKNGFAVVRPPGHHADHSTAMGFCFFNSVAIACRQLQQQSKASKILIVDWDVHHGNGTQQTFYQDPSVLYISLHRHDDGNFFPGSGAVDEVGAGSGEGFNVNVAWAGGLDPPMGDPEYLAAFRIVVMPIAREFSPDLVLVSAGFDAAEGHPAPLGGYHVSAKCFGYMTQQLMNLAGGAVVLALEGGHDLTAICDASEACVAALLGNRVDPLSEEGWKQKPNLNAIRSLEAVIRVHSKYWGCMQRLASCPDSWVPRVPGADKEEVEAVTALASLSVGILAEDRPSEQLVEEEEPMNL
The data set can be described thus: Inhibition of human recombinant HDAC7 using Ac-Leu-Gly-Lys (Tfa)-AMC as substrate preincubated with compound for 10 mins followed by substrate addition and measured after 45 mins by TECAN microtiter plate reader analysis.

The test system of data set [4] is B16-F10. The experiment in a line: Cytotoxicity against mouse B16-F10 cells assessed as increase in dead cells at 0.5 to 8 uM measured for 48 hrs by calcein-AM/propidium iodide staining based analysis. Format: functional, cell-based. As to conditions: dose 0.5-8 µM.
Data set [5] deals with B16-F10. The data set can be described thus: Induction of apoptosis in mouse B16-F10 cells at 1 uM measured for 48 hrs by Annexin-V/FITC staining based flow cytometry analysis relative to control. It counts as functional.
The subject of data set [6] is B16-F10. The data set can be described thus: Antiproliferative activity against mouse B16-F10 cells assessed as reduction in cell viability measured for 48 hrs by MTT assay. Format: functional, cell-based. As to conditions: B16-F10, 48 h.
Data set [7] deals with T2, Protein deacetylase HDAC6 (Homo sapiens, UniProt Q9UBN7).
T2 sequence (Q9UBN7 whole entry): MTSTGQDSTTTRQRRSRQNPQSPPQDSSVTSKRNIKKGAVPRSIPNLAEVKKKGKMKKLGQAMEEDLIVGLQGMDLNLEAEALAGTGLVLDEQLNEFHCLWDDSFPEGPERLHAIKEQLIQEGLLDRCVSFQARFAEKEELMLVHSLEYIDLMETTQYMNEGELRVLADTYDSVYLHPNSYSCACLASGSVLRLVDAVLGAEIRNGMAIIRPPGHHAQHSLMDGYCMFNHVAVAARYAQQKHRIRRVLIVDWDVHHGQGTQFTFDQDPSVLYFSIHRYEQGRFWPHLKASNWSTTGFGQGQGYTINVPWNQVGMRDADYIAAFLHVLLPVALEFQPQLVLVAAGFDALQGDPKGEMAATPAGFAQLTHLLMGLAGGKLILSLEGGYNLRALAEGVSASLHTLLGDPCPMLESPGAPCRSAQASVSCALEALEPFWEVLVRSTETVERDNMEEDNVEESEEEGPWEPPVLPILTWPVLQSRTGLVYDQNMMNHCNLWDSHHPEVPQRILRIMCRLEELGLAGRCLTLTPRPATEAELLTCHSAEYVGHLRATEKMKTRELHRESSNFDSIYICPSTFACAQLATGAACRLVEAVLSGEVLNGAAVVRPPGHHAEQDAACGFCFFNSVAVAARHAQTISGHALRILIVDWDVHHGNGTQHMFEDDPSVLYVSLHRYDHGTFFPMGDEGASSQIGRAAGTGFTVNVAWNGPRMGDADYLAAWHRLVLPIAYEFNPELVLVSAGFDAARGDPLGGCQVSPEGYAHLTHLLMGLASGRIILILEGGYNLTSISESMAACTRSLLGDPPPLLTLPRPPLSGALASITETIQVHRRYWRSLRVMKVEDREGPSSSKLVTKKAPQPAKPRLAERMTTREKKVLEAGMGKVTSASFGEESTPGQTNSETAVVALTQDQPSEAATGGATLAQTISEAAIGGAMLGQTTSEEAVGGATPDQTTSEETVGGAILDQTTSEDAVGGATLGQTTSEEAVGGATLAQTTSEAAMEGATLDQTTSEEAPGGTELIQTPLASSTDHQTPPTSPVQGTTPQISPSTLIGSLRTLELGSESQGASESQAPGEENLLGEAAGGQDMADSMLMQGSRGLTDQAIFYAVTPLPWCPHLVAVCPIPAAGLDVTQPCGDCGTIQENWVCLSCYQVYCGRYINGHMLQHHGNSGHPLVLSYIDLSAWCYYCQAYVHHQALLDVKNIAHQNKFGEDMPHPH
The experiment in a line: Inhibition of human recombinant HDAC6 using Ac-Leu-Gly-Lys (Ac)-AMC as substrate preincubated with compound for 10 mins followed by substrate addition and measured after 45 mins by TECAN microtiter plate reader analysis.

The structures appear in SMILES notation. ≈ marks a conversion by molar mass, not a printed value. Calls of active or inactive are those of the source. The rule behind the calls is not given here.

Description for HCT-116: Antiproliferative activity against human HCT-116 cells assessed as reduction in cell viability measured for 48 hrs by MTT assay

In the case of `CCCNNC(=O)c1ccc(CNC(=O)c2ncc(CNc3ccccc3)s2)cc1`, the Activity in the data set on B16-F10 [1] is 71.07%; in the data set with B16-F10 [3], “Dose-Dependent Effect”; in the data set with B16-F10 [5], 31.49%. Moreover, the IC50 was 430 nM with HCT-116, greater than 10 µM at Histone deacetylase 7, 1200 nM in the data set on B16-F10 [6] and greater than 10 µM in data set [7]. Moreover, the solubility (thermodynamic) at 24 h in [2] came to 15.6 µg/mL (≈ 36.8 µM). Further, the result with Raji and in the data set on B16-F10 [4] was Active.
Take `Nc1ccccc1NC(=O)c1ccc(-c2ncc(CNc3ccccc3)s2)cc1`: the figures for the Activity with B16-F10 [1], in the data set with B16-F10 [3] and in the data set with B16-F10 [5] were 29.59%, “Dose-Dependent Effect” and 13.2%, respectively. For the same compound, the IC50 with HCT-116 is 1570 nM; on Histone deacetylase 7, greater than 10 µM; in the data set with B16-F10 [6] it was 1340 nM; in data set [7], greater than 10 µM. Besides, the thermodynamic solubility at 24 h in data set [2] amounted to 3.8 µg/mL (≈ 9.49 µM). The outcome in the data set on Raji and in the data set with B16-F10 [4] was Active.
